PubChem BioAssay AID206 (DTP/NCI, 2004)
Values joined by “and” are separate entries in the source; they are usually repeats but may differ in a detail not shown here. Identical values can stand only once. Records with an inconclusive call do not appear.

System: nude mice, HT29 intrarenal xenograft, tumor weight T/C
Experiment: NCI In Vivo Anticancer Drug Screen. Data for tumor model HT29;CX-1 Human Adenocarcinoma (MER+) (intrarenal inoculation) in NU/NU Swiss (nude) mice
Settings: endpoint: mean tumor weight change, higher = larger tumour
Outline: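 Endpoint measured as tumor size or survival; ratio reported is treated group over vehicle controls.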

[1] = dose: 300.0 mg/kg/injection, schedule: Q04DX004 (sc), vehicle: Klucel (hydroxypropylcellulose) (HPC)
[2] = dose: 600.0 mg/kg/injection, schedule: Q04DX004 (sc), vehicle: Klucel (hydroxypropylcellulose) (HPC)
[3] = dose: 1200.0 mg/kg/injection, schedule: Q04DX004 (sc), vehicle: Klucel (hydroxypropylcellulose) (HPC)
[4] = dose: 150.0 mg/kg/injection, schedule: Q04DX004 (sc), vehicle: Klucel (hydroxypropylcellulose) (HPC)
[5] = dose: 200.0 mg/kg/injection, schedule: Q04DX004 (sc), vehicle: Klucel (hydroxypropylcellulose) (HPC)
[6] = dose: 400.0 mg/kg/injection, schedule: Q04DX004 (sc), vehicle: Klucel (hydroxypropylcellulose) (HPC)
[7] = dose: 75.0 mg/kg/injection, schedule: Q04DX004 (sc), vehicle: Klucel (hydroxypropylcellulose) (HPC)
[8] = dose: 300.0 mg/kg/injection, schedule: Q04DX004 (sc), vehicle: saline with Tween-80
[9] = dose: 600.0 mg/kg/injection, schedule: Q04DX004 (sc), vehicle: saline with Tween-80
[10] = dose: 800.0 mg/kg/injection, schedule: Q04DX004 (sc), vehicle: Klucel (hydroxypropylcellulose) (HPC)
[11] = dose: 150.0 mg/kg/injection, schedule: Q04DX004 (sc), vehicle: saline with Tween-80
[12] = dose: 75.0 mg/kg/injection, schedule: Q04DX004 (sc), vehicle: saline with Tween-80

Structure (SMILES): Cn1cc(C2NC(=O)c3ccccc3N2)c2ccccc21 (stereo unspecified)
- T/C [1]: 97 % of control
- T/C [2]: 116 % of control
- T/C [3]: 60 % of control
- T/C (dose: 2400.0 mg/kg/injection, schedule: Q04DX004 (sc), vehicle: Klucel (hydroxypropylcellulose) (HPC)): 94 % of control

Structure (SMILES): COc1cccc2c1C(=O)c1c(O)c3c(c(O)c1C2=O)C[C@@](O)(C(=O)COC(=O)c1cccnc1)C[C@@H]3OC1CC(N)C(O)C(C)O1 (stereo partly specified)
- T/C (dose: 6.0 mg/kg/injection, schedule: Q04DX004 (sc), vehicle: saline): 44 % of control and 65 % of control

Structure (SMILES): Cc1ccc(S(=O)(=O)OCOS(=O)(=O)c2ccc(C)cc2)cc1
- T/C [4]: 118 % of control
- T/C [1]: 100 % of control
- T/C [2]: 53 % of control
- T/C [3]: 68 % of control

Structure (SMILES): COc1ccc2c(c1)CCC(c1ccccc1)=C2c1ccc(OCCN2CCCC2)cc1
- T/C (dose: 50.0 mg/kg/injection, schedule: Q04DX004 (sc), vehicle: Klucel (hydroxypropylcellulose) (HPC)): 87 % of control
- T/C [5]: 108 % of control
- T/C [6]: 52 % of control

Structure (SMILES): COC1C(CO)OC(n2cnc3c(=S)nc(N)[nH]c32)C1O (stereo unspecified)
- T/C [4]: 116 % of control

Structure (SMILES): O=c1s[se]c2ccccc12
- T/C [7]: 108 % of control
- T/C [4]: 48 % of control
- T/C [2]: 74 % of control

Structure (SMILES): Cc1ccc(NC(=O)Oc2ccc(Br)cc2Br)c([N+](=O)[O-])c1
- T/C [8]: 35 % of control
- T/C [9]: 52 % of control
- T/C (dose: 1200.0 mg/kg/injection, schedule: Q04DX004 (sc), vehicle: saline with Tween-80): 69 % of control

Structure (SMILES): O=C(O)CCCCCCCC(=O)O
- T/C (dose: 600.0 mg/kg/injection, schedule: Q04DX004 (sc), vehicle: distilled water + Tween-80): 67 % of control
- T/C (dose: 2400.0 mg/kg/injection, schedule: Q04DX004 (sc), vehicle: distilled water + Tween-80): 113 % of control

Structure (SMILES): C[N+](C)(C)c1ncnc2c1ncn2C1CCCO1 (stereo unspecified)
- T/C (dose: 6.25 mg/kg/injection, schedule: Q01DX010 (sc), vehicle: saline): 80 % of control
- T/C (dose: 12.5 mg/kg/injection, schedule: Q01DX010 (sc), vehicle: saline): 120 % of control
- T/C (dose: 25.0 mg/kg/injection, schedule: Q01DX010 (sc), vehicle: saline): 90 % of control

Structure (SMILES): COc1ccc(-c2csc(=[N+]3CCCCC3)s2)cc1
- T/C (dose: 6.25 mg/kg/injection, schedule: Q04DX004 (sc), vehicle: water): 227 % of control
- T/C (dose: 12.5 mg/kg/injection, schedule: Q04DX004 (sc), vehicle: water): 118 % of control

Structure (SMILES): O=c1[nH]c(=O)c2nc(-c3cccnc3)cnc2[nH]1
- T/C (dose: 100.0 mg/kg/injection, schedule: Q04DX004 (sc), vehicle: Klucel (hydroxypropylcellulose) (HPC)): 68 % of control
- T/C [5]: 85 % of control
- T/C [6]: 102 % of control
- T/C [10]: 77 % of control

Structure (SMILES): NC(=O)NO
- T/C (dose: 37.5 mg/kg/injection, schedule: Q04DX004 (sc), vehicle: saline): 75 % of control
- T/C (dose: 75.0 mg/kg/injection, schedule: Q04DX004 (sc), vehicle: saline): 79 % of control
- T/C (dose: 150.0 mg/kg/injection, schedule: Q04DX004 (sc), vehicle: saline): 75 % of control
- T/C (dose: 300.0 mg/kg/injection, schedule: Q04DX004 (sc), vehicle: saline): 86 % of control

Structure (SMILES): Cc1cc(N/N=C/c2ccccn2)nc2ccccc12
- T/C (dose: 37.5 mg/kg/injection, schedule: Q04DX004 (sc), vehicle: Klucel (hydroxypropylcellulose) (HPC)): 101 % of control
- T/C [7]: 107 % of control
- T/C [4]: 123 % of control
- T/C [1]: 90 % of control

Structure (SMILES): CCOC(=O)Nc1cc2c(c(N)n1)N=C(CN(C)c1ccccc1)CN2
- T/C (dose: 6.0 mg/kg/injection, schedule: Q01DX010 (sc), vehicle: Klucel (hydroxypropylcellulose) (HPC)): 35 % of control
- T/C (dose: 12.0 mg/kg/injection, schedule: Q01DX010 (sc), vehicle: Klucel (hydroxypropylcellulose) (HPC)): 45 % of control
- T/C (dose: 24.0 mg/kg/injection, schedule: Q01DX010 (sc), vehicle: Klucel (hydroxypropylcellulose) (HPC)): 53 % of control

Structure (SMILES): CC(=O)N(C)O
- T/C [11]: 88 % of control
- T/C [8]: 71 % of control
- T/C [9]: 45 % of control

Structure (SMILES): CN(N=O)C(N)=O
- T/C (dose: 12.5 mg/kg/injection, schedule: Q01DX010 (sc), vehicle: saline with Tween-80): 119 % of control
- T/C (dose: 25.0 mg/kg/injection, schedule: Q01DX010 (sc), vehicle: saline with Tween-80): 41 % of control
- T/C (dose: 100.0 mg/kg/injection, schedule: Q04DX004 (sc), vehicle: suspension in saline): 101 % of control

Structure (SMILES): Cc1cc(=NO)cc(C)n1O
- T/C (dose: 150.0 mg/kg/injection, schedule: Q04DX004 (sc), vehicle: distilled water + alcohol): 73 % of control
- T/C (dose: 300.0 mg/kg/injection, schedule: Q04DX004 (sc), vehicle: distilled water + alcohol): 80 % of control
- T/C (dose: 600.0 mg/kg/injection, schedule: Q04DX004 (sc), vehicle: distilled water + alcohol): 87 % of control
- T/C (dose: 1200.0 mg/kg/injection, schedule: Q04DX004 (sc), vehicle: distilled water + alcohol): 65 % of control

Structure (SMILES): O/N=C/c1ccccc1O.O/N=C/c1ccccc1O.[Cu]
- T/C (dose: 25.0 mg/kg/injection, schedule: Q04DX004 (sc), vehicle: saline with Tween-80): 76 % of control
- T/C (dose: 50.0 mg/kg/injection, schedule: Q04DX004 (sc), vehicle: saline with Tween-80): 39 % of control
- T/C (dose: 100.0 mg/kg/injection, schedule: Q04DX004 (sc), vehicle: saline with Tween-80): 43 % of control
- T/C (dose: 200.0 mg/kg/injection, schedule: Q04DX004 (sc), vehicle: saline with Tween-80): 61 % of control

Structure (SMILES): O=C(/C=C(\Cl)C(=O)NO)NO
- T/C (dose: 50.0 mg/kg/injection, schedule: Q04DX004 (sc), vehicle: saline): 102 % of control
- T/C (dose: 100.0 mg/kg/injection, schedule: Q04DX004 (sc), vehicle: saline): 172 % of control
- T/C (dose: 200.0 mg/kg/injection, schedule: Q04DX004 (sc), vehicle: saline): 86 % of control

Structure (SMILES): O=NN(CCCl)C(=O)NCCCl
- T/C (dose: 2.0 mg/kg/injection, schedule: Q01DX010 (sc), vehicle: saline): 80 % of control
- T/C (dose: 4.0 mg/kg/injection, schedule: Q01DX010 (sc), vehicle: saline): 66 % of control
- T/C (dose: 8.0 mg/kg/injection, schedule: Q01DX010 (sc), vehicle: saline): 61 % of control and 70 % of control
- T/C (dose: 15.0 mg/kg/injection, schedule: Q04DX004 (sc), vehicle: suspension in saline): 100 % of control
- T/C (dose: 30.0 mg/kg/injection, schedule: Q04DX004 (sc), vehicle: suspension in saline): 69 % of control
- T/C (dose: 60.0 mg/kg/injection, schedule: Q04DX004 (sc), vehicle: suspension in saline): 41 % of control

Structure (SMILES): N#CC(=C1SCS1)[N+](=O)[O-]
- T/C (dose: 12.0 mg/kg/injection, schedule: Q04DX004 (sc), vehicle: saline): 22 % of control
- T/C (dose: 24.0 mg/kg/injection, schedule: Q04DX004 (sc), vehicle: saline): 154 % of control
- T/C (dose: 48.0 mg/kg/injection, schedule: Q04DX004 (sc), vehicle: saline): 32 % of control
- T/C (dose: 96.0 mg/kg/injection, schedule: Q04DX004 (sc), vehicle: saline): 45 % of control

Structure (SMILES): C=C(C)C(=O)OC1C/C(CO)=C\C(O)C/C(C)=C/C2OC(=O)C(=C)C21 (stereo unspecified)
- T/C (dose: 20.0 mg/kg/injection, schedule: Q04DX004 (sc), vehicle: saline + alcohol): 100 % of control
- T/C (dose: 40.0 mg/kg/injection, schedule: Q04DX004 (sc), vehicle: saline + alcohol): 83 % of control
- T/C (dose: 80.0 mg/kg/injection, schedule: Q04DX004 (sc), vehicle: saline + alcohol): 70 % of control

Structure (SMILES): Cc1ccc(S(=O)(=O)NC(=O)C2C(=O)CC3(CCCCC3)CC2=O)cc1
- T/C [4]: 80 % of control
- T/C [1]: 84 % of control
- T/C [2]: 58 % of control

Structure (SMILES): CNc1cccnc1/C=N/NC(N)=S
- T/C [12]: 83 % of control
- T/C [11]: 110 % of control
- T/C [8]: 33 % of control
- T/C [9]: 58 % of control

Structure (SMILES): CCCNC1=C(C)C(=O)C2=C(C1=O)[C@H](COC(N)=O)[C@]1(OC)[C@@H]3N[C@@H]3CN21
- T/C (dose: 6.0 mg/kg/injection, schedule: Q04DX003 (sc), vehicle: saline): 78 % of control
- T/C (dose: 12.0 mg/kg/injection, schedule: Q04DX003 (sc), vehicle: saline): 1 % of control

Structure (SMILES): Cc1cc(=O)n2c3c(c4c(cc13)c(CN(C)C)cc(=O)n4C)OC2
- T/C [12]: 117 % of control
- T/C [11]: 57 % of control

Structure (SMILES): CN(C(=S)S(=O)(=O)C12CC3CC(CC(C3)C1)C2)c1ccccc1
- T/C (dose: 12.5 mg/kg/injection, schedule: Q04DX004 (sc), vehicle: Klucel (hydroxypropylcellulose) (HPC)): 99 % of control
- T/C (dose: 25.0 mg/kg/injection, schedule: Q04DX004 (sc), vehicle: Klucel (hydroxypropylcellulose) (HPC)): 113 % of control
- T/C [6]: 107 % of control and 123 % of control
- T/C [10]: 197 % of control
